Source: US6852700B1, “Colostrinin, and uses thereof” (Ludwig Hirzfeld Institute of Immunology and Experimental …, priority 1996, dated 2005)
Ends that are not written are not given here.

Experiments:
[1] = test system: patients with Alzheimer's disease; experiment: Treatment of volunteer patients with Alzheimer's disease with tablets for sucking; type: in vivo, human
Procedure: (§1) The method of treatment of disorders of the central nervous system was investigated on a group of volunteer patients in the early and moderate stages of Alzheimer's disease. The dosage units were administered in the form of tablets for sucking, between meals, containing 0.00015 g of Colostrinin™ defined in Examples I and III. Firstly, 1 tablet was used daily for a period of 3 weeks, then therapy was interrupted for 2-4 weeks and treatment was repeated, administering 2 tablets daily for 3 weeks. […] This is manifested by an inability to synthesise IFN and also tumour necrosis factor TNF-α. This phenomenon permits quantitative measurements of the action of active agent.
This was followed by a 3-week pause in treatment (during the pause, the tolerance to the inducer returns to normal). Blood samples for investigating stimulation of IFN-γ by Colostrinin™ and control inducers (PHA-10 μg/ml) were taken every week. The method of performing the tests for induction of cytokines and their quantitative determination were described in previous sections.
as §1, with “early” for “early and moderate”, “sucking” for “sucking,”, “NP” for “Colostrinin™”, “Example II.” for “Examples I and III.”, “3” for “2-4”

mice of the NZB line = experiment: Haemolytic anaemia in mice of the NZB line; type: in vivo; conditions: intraperitoneal administration
[2] = test system: lymphocytes isolated from cord blood (CBL); experiment: Induction of cytokines in a culture of lymphocytes isolated from cord blood (CBL); type: cell-based, human; conditions: 20 hours
Procedure: Cord blood obtained from the Gynaecological-Obstetric Department of the Specialist District Hospital in Wroclaw. Induction of cytokines by Colostrinin™ in vitro in lymphocytes of cord blood taken 4-6 hours after parturition is effected in the following way.
The lymphocytes are isolated using a Ficoll-Paque® gradient containing 5.7 g of the component Ficoll 400 and 9.0 g of the component Diatrizoate Sodium per 100 ml. The lymphocytes isolated are suspended in RPMI-1640 culture medium at density of 2×10^6 lymphocyte cells per 1 ml of culture medium. Colostrinin™ at concentration of 1-20 μg/ml or phytohaemagglutinin at concentration of 10 μg/ml is added to the lymphocyte suspension. The culture is incubated for 20 hours at a temperature of 37° C. Then the level of cytokines in the culture fluids is determined by biological methods.

mice = experiment: Toxicological studies on mice; type: in vivo; conditions: both after oral and parenteral administration
sarcoma 180 = experiment: Growth of sarcoma 180 in mice; type: in vivo; conditions: intraperitoneal administration in mice
human volunteers = conditions: tablets for sucking, at least 25 μg, at least one daily, about 3 weeks
[3] = test system: lymphocytes present in whole blood; experiment: Induction of cytokines in vitro in whole blood cultures; type: cell-based, human
Procedure: Induction of cytokines by the polypeptide Colostrinin™ in vitro on blood taken from healthy and sick volunteers taking the pharmaceutical in the form stated in Example III, in cyclic treatment, is carried out as follows.
Whole blood, containing 10 units per 1 ml of heparin without preservatives is diluted at 1:10 ratio in RPMI 1640 culture medium. Incubation is conducted in the same culture medium without inducers (negative control), or in the presence of 1-100 μg/ml of the polypeptide Colostrinin™ or in the presence of 2 μg/ml blood of phytohaemagglutinin (PHA) and 2 μg/ml blood of lipopolysaccharide (LPS), at a temperature of 37° C., in an atmosphere of 5% carbon dioxide, for 20 hours. Samples with mixture of PHA and LPS are the positive control, as they can stimulate the maximum quantities of cytokines.

[4] = test system: mice exposed to gamma radiation; experiment: Radiation sickness in mice exposed to gamma radiation; type: in vivo
[5] = early and moderate Alzheimer's disease, 1 tablet daily 3 weeks, pause 2-4 weeks, 2 tablets daily 3 weeks
[6] = donor four breast cancer, dose 10 μg/ml
[7] = donor four breast cancer, dose 100 μg/ml
[8] = donor one. Alzheimer's disease, dose 10 μg/ml
[9] = donor one. Alzheimer's disease, dose 100 μg/ml
[10] = donor six healthy young soldier, dose 1 μg/ml
[11] = donor six healthy young soldier, dose 10 μg/ml
[12] = donor six healthy young soldier, dose 100 μg/ml
[13] = donor three schizophrenia, dose 10 μg/ml
[14] = donor three schizophrenia, dose 100 μg/ml
[15] = donor two healthy young soldier, dose 1 μg/ml
[16] = donor two healthy young soldier, dose 10 μg/ml
[17] = donor two healthy young soldier, dose 100 μg/ml
[18] = healthy volunteers, inducer dose 10 μg/ml, 20 hours
[19] = healthy volunteers, inducer dose 100 μg/ml, 20 hours
[20] = patients with Alzheimer's disease, inducer dose 10 μg/ml
[21] = patients with Alzheimer's disease, inducer dose 100 μg/ml
[22] = early Alzheimer's disease, NP tablets, 1 daily 3 weeks, pause 3 weeks, 2 daily 3 weeks

Colostrinin ™ was tested, and the “clinical effect in patients with Alzheimer's disease” value [1, 5] was “improvement of contact and uplift of mood were observed”, the “reactivity to induction of IFN and TNF-α after treatment” value [1, 5] was “induced a state of hyporeactivity or tolerance” and the “time course of hyporeactivity to induction of IFN-γ (FIG. 1)” value ([1]; patient five, 100 μg tablet every other day for three weeks, then 3-week pause) was “hyporeactivity appears as early as during the first week”. The “development of haemolytic anaemia” value (mice of the NZB line) was “inhibits the development of haemolytic anaemia”, the “Cytokines IFN” value ([2]; dose 1 μg/ml) was 38 ± 66 unit/ml and the “Cytokines TNF” value ([2]; dose 1 μg/ml) was 16 ± 17 unit/ml. For the same substance, the “Cytokines IFN” value ([2]; dose 10 μg/ml) was 78 ± 80 unit/ml, the “Cytokines TNF” value ([2]; dose 10 μg/ml) was 37 ± 35 unit/ml and the “Cytokines IFN” value ([2]; dose 20 μg/ml) was 89 ± 79 unit/ml. For the same substance, the “Cytokines TNF” value ([2]; dose 20 μg/ml) was 59 ± 41 unit/ml, the LD50 (mice) was “above 1.25 g/kg of body weight” and the “growth of sarcoma 180” value (sarcoma 180) was “inhibit the growth of sarcoma 180”. The “reactivity to induction of IFN-γ and TNF-α” value (human volunteers) was “state of hyporeactivity”, the “production of cytokines, dose dependence” value ([3]; concentrations of 1-100 μg/ml, whole blood) was “stimulates the production of cytokines in a dose-dependent fashion” and the “production of cytokines (IFN-γ, TNF-α, IL-6, IL-10, growth factors)” value ([3]; cultures of lymphocytes of human peripheral blood (including cord blood)) was “stimulates the production of cytokines”. The “Titres of IFN determined by Antivirus biotest” value (“Titres … by Antivirus biotest” for short) [3, 6] was 50 units/ml, the “Titres of IFN determined by ELISA IFN-γ” value [3, 6] was 307 pg/mL and the “Titres … by Antivirus biotest” value [3, 7] was 70 units/ml. The “Titres of IFN determined by ELISA IFN-γ” value [3, 7] was 523 pg/mL, the “Titres … by Antivirus biotest” value [3, 8] was 20 units/ml and the “Titres of IFN determined by ELISA IFN-γ” value [3, 8] was 427 pg/mL. For the same substance, the “Titres … by Antivirus biotest” value [3, 9] was 40 units/ml, the “Titres of IFN determined by ELISA IFN-γ” value [3, 9] was 400 pg/mL and the “Titres … by Antivirus biotest” value [3, 10] was 100 units/ml. The “Titres of IFN determined by ELISA IFN-γ” value [3, 10] was 2690 pg/mL, the “Titres … by Antivirus biotest” value [3, 11] was 200 units/ml and the “Titres of IFN determined by ELISA IFN-γ” value [3, 11] was 3778 pg/mL. The “Titres … by Antivirus biotest” value [3, 12] was 600 units/ml, the “Titres of IFN determined by ELISA IFN-γ” value [3, 12] was 3941 pg/mL and the “Titres … by Antivirus biotest” value [3, 13] was 6 units/ml. The “Titres of IFN determined by ELISA IFN-γ” value [3, 13] was 29 pg/mL, the “Titres … by Antivirus biotest” value [3, 14] was 6 units/ml and the “Titres of IFN determined by ELISA IFN-γ” value [3, 14] was 29 pg/mL. For the same substance, the “Titres … by Antivirus biotest” value [3, 15] was 100 units/ml, the “Titres of IFN determined by ELISA IFN-γ” value [3, 15] was 1413 pg/mL and the “Titres … by Antivirus biotest” value [3, 16] was 300 units/ml. For the same substance, the “Titres of IFN determined by ELISA IFN-γ” value [3, 16] was 3402 pg/mL, the “Titres … by Antivirus biotest” value [3, 17] was 300 units/ml and the “Titres of IFN determined by ELISA IFN-γ” value [3, 17] was 2920 pg/mL. The “Cytokines IFN” value [3, 18] was 50 ± 59 unit/ml, the “Cytokines TNF” value [3, 18] was 316 ± 371 unit/ml and the “Cytokines IFN” value [3, 19] was 344 ± 254 unit/ml. For the same substance, the “Cytokines TNF” value [3, 19] was 670 ± 560 unit/ml, the “Cytokines IFN” value [3, 20] was 15 ± 9 unit/ml and the “Cytokines TNF” value [3, 20] was 182 ± 158 unit/ml. For the same substance, the “Cytokines IFN” value [3, 21] was 21 ± 14 unit/ml, the “Cytokines TNF” value [3, 21] was 249 ± 187 unit/ml and the “protection against radiation sickness” value [4] was “protects the animals against radiation sickness”.

With “phytohaemagglutinin [PHA, reference compound]” the “Cytokines IFN” value ([2]; PHA dose 10 μg/ml) was 75 ± 66 unit/ml and the “Cytokines TNF” value ([2]; PHA dose 10 μg/ml) was 83 ± 69 unit/ml.

For “VESYVPLFP [NP, nonapeptide fragment of Colostrinin obtained by chymotrypsin digestion or chemical synthesis]”, the “clinical effect in patients with Alzheimer's disease” value [1, 22] was “improvement of contact and uplift of mood were observed” and the “reactivity to induction of IFN and TNF-α after treatment” value [1, 22] was “induced a state of hyporeactivity or tolerance”.
